Reference: paper PMC9457583, “New Chemicals Suppressing SARS-CoV-2 Replication in Cell Culture” (Molecules, 2022)
Peptide text beside a SMILES is read from it. * marks the point of attachment. Cbz = O=C(OCc1ccccc1)*

System: SARS-CoV-2
Test: microbe, parasite or virus in culture
Format: cell-based
Details: Severe acute respiratory syndrome coronavirus 2, Vero C1008, 96 h
In the case of `O=c1[nH]c2ccc(Cl)cc2c(-c2ccccc2)c1SC(=S)N1CCCCC1` [Compound 6b, 6-chloro-2-oxo-4-phenyl-1,2-dihydroquinolin-3-yl piperidine-1-carboditioate], the EC50 is reported as 7.62 ± 1.84 µM.
`CC1CCCCN1C(=S)Sc1c(-c2ccccc2)c2cc(Cl)ccc2[nH]c1=O` (stereo not drawn) [Compound 6c, 6-chloro-2-oxo-4-phenyl-1,2-dihydroquinolin-3-yl 2-methylpiperidine-1-carboditioate] gave an EC50 of 22.4 ± 2.58 µM.

Same assay, conditions: Severe acute respiratory syndrome coronavirus 2, Vero C1008; Vero E6 cells, MOI 0.1, 96 h, MTT; read-out: EC50
`Cc1cc2c(cc1C)N(C(=O)COc1ccc3ccccc3c1)C(C)(C)c1ssc(=S)c1-2` [Compound 3a] showed an EC50 of 0.51 ± 0.41 µM.
In the case of `Cc1ccc2c(c1)N(C(=O)COc1ccc3ccccc3c1)C(C)(C)c1ssc(=S)c1-2` [Compound 3b], the EC50 is reported as 1.16 ± 0.23 µM.
Work on `Cc1ccc2c(c1)-c1c(ssc1=S)C(C)(C)N2C(=O)COc1ccc2ccccc2c1` [Compound 3c] yielded an EC50 of 2.71 ± 0.91 µM.
For `COc1ccc2c(c1)-c1c(ssc1=S)C(C)(C)N2C(=O)COc1ccc2ccccc2c1` [Compound 3d], the EC50 was 9.4 ± 1.67 µM.
For `Clc1ccc2nc(OCc3ccccc3Cl)c(N3CCOCC3)c(-c3ccccc3)c2c1` [Compound 6a, 6-chloro-2-[(2-chlorobenzyl)oxy]-3-(morpholin-4-yl)-4-phenylquinoline], the EC50 was 4.77 ± 1.87 µM.
`c1ccc2cc(Nc3nc(Nc4ccc5ccccc5c4)nc(N4CCCCCC4)n3)ccc2c1` [Compound 9a, 6-(azepan-1-yl)-N,N ^′ -di(naphthalen-2-yl)-1,3,5-triazine-2,4-diamine] showed an EC50 of 18.2 ± 4.2 µM.
In the case of `c1ccc(Nc2nc(Nc3ccccc3)nc(N3CCCCCC3)n2)cc1` [Compound 9b, 6-(azepan-1-yl)-N,N’-diphenyl-1,3,5-triazine-2,4-diamine], the EC50 is reported as 1.04 ± 0.26 µM.
With `CN1CCN(c2nc(Nc3cccc4ccccc34)nc(Nc3cccc4ccccc34)n2)CC1` [Compound 9c, 6-(4-methylpiperazin-1-yl)-N,N ^′ -di(naphthalen-1-yl)-1,3,5-triazine-2,4-amine] the EC50 was 19.6 ± 2.94 µM.
For `CCC(CC)COC(=O)[C@H](C)N[P@](=O)(OC[C@H]1O[C@@](C#N)(c2ccc3c(N)ncnn23)[C@H](O)[C@@H]1O)Oc1ccccc1` [remdesivir, reference compound], the EC50 was 2.94 ± 0.67 µM.

System: SARS-CoV-2
Test: not given
Parameters: method as in PMID 35287429
Details: read-out: EC50 (SARS-CoV-2 replication in cell culture); cited from earlier work
For `CC(C)C[C@@H](C=O)NC(=O)[C@H](CC(C)C)NC(=O)[C@H](CC(C)C)NC(=O)OCc1ccccc1` [MG–132] (Cbz-Leu-Leu-Leu-aldehyde), the EC50 is given as 0.1 µM.

System: SARS-CoV-2
Test: not given
Parameters: method as in PMID 33062953
Details: cited from earlier work
For `Cn1nc(-c2ccc(C(F)(F)F)cc2)nc2c(=O)n(C)c(=O)nc1-2` [Valrycin B], the “EC50 (virus replication in cell culture)” value is given as “submicromolar”.
For `CC(NC(=O)C(Cc1ccccc1)NC(=O)OCc1ccccc1)C(=O)F` (stereo not drawn) [Z-FA-FMK], the “EC50 (virus replication in cell culture)” value is given as “submicromolar”.

System: SARS-CoV-2
Test: not given
Parameters: method as in PMID 32855413
Details: cited from earlier work
Remark: another data set of the same source
For `CC(C)C[C@H](NC(=O)OCc1ccccc1)C(=O)N[C@H](C=O)CC1CCNC1=O` (stereo partly drawn) [GC–373], the EC50 is listed as about 1 µM.
For `CC(C)C[C@H](NC(=O)OCc1ccccc1)C(=O)N[C@@H](CC1CCNC1=O)C(O)S(=O)(=O)O` (stereo partly drawn) [GC–376], the EC50 is given as about 1 µM.

System: SARS-CoV-2 Mpro
Test: not given
Details: read-out: IC50 (Mpro); cited from earlier work
For `CC(C)C[C@H](NC(=O)OCc1ccccc1)C(=O)N[C@@H](CC1CCNC1=O)C(O)S(=O)(=O)O` (stereo partly drawn) [GC–376], the IC50 is given as about 0.3 µM.

System: SARS-CoV-2
Test: not given
Details: SARS-CoV-2-infected Vero E6/TMPRSS2 cells; cited from earlier work
For `Cn1cnc(Cn2c(=O)[nH]/c(=N\c3cc4cn(C)nc4cc3Cl)n(Cc3cc(F)c(F)cc3F)c2=O)n1` [Compound S-217622], the EC50 is listed as 0.37 µM.

System: not given
Test: not given
Details: not given
`Cc1cc2c(cc1C)N(C(=O)COc1ccc3ccccc3c1)C(C)(C)c1ssc(=S)c1-2` [Compound 3a] gave a melting point of 189 to 190 °C.
Work on `Cc1ccc2c(c1)N(C(=O)COc1ccc3ccccc3c1)C(C)(C)c1ssc(=S)c1-2` [Compound 3b] yielded a melting point of over 144 °C.
With `Cc1ccc2c(c1)-c1c(ssc1=S)C(C)(C)N2C(=O)COc1ccc2ccccc2c1` [Compound 3c] the melting point was 153 to 154 °C.
For `COc1ccc2c(c1)-c1c(ssc1=S)C(C)(C)N2C(=O)COc1ccc2ccccc2c1` [Compound 3d], the melting point was 136 to 137 °C.
In the case of `CC1CCCCN1C(=S)Sc1c(-c2ccccc2)c2cc(Cl)ccc2[nH]c1=O` (stereo not drawn) [Compound 6c, 6-chloro-2-oxo-4-phenyl-1,2-dihydroquinolin-3-yl 2-methylpiperidine-1-carboditioate], the melting point is reported as 265 to 266 °C.
With `c1ccc2cc(Nc3nc(Nc4ccc5ccccc5c4)nc(N4CCCCCC4)n3)ccc2c1` [Compound 9a, 6-(azepan-1-yl)-N,N ^′ -di(naphthalen-2-yl)-1,3,5-triazine-2,4-diamine] the melting point was 164 to 165 °C.
In the case of `c1ccc(Nc2nc(Nc3ccccc3)nc(N3CCCCCC3)n2)cc1` [Compound 9b, 6-(azepan-1-yl)-N,N’-diphenyl-1,3,5-triazine-2,4-diamine], the melting point is reported as 160 to 161 °C.
`CN1CCN(c2nc(Nc3cccc4ccccc34)nc(Nc3cccc4ccccc34)n2)CC1` [Compound 9c, 6-(4-methylpiperazin-1-yl)-N,N ^′ -di(naphthalen-1-yl)-1,3,5-triazine-2,4-amine] showed a melting point of 160 to 161 °C.

System: not given
Test: not given
Parameters: method as in PMID 32855413
Details: read-out: CC50 (cytotoxicity); cited from earlier work
In the case of `CC(C)C[C@H](NC(=O)OCc1ccccc1)C(=O)N[C@H](C=O)CC1CCNC1=O` (stereo partly drawn) [GC–373], the CC50 is given as over 200 µM.
For `CC(C)C[C@H](NC(=O)OCc1ccccc1)C(=O)N[C@@H](CC1CCNC1=O)C(O)S(=O)(=O)O` (stereo partly drawn) [GC–376], the CC50 is given as over 200 µM.

System: SARS-CoV-2
Test: not given
Parameters: method as in PMID 34726479
Details: Vero E6 cell culture; read-out: EC50 (virus replication); cited from earlier work
In the case of `CC(C)(C)[C@H](NC(=O)C(F)(F)F)C(=O)N1C[C@H]2[C@@H]([C@H]1C(=O)N[C@H](C#N)C[C@@H]1CCNC1=O)C2(C)C` [PF-07321332, nirmatrelvir], the EC50 is listed as 0.0853 µM.
